Measured values published in patent publication US5126373A, “Composition for parenteral and oral nutrition” (priority 1987, dated 1992).

Legend:
[1] = Preliminary results with 1,3-pentanediol and its esters; conditions: liver
[2] = Volume of distribution of butanediol; assay type: in vivo
Text: In other experiments, the volume of distribution of butanediol is equal to 2/3 of the body wt, i.e. total body water.

[3] = system: mitochondrial [NADH]/[NAD^+ ]; experiment: Redox parameters in blood of pigs; assay type: in vivo, pig; conditions: reflects the mitochondrial [NADH]/[NAD^+ ]
Text: (§1) The pigs were given equicaloric amount of either:

[4] = Blood glucose levels in unanesthetized young pigs; assay type: in vivo, pig; conditions: intravenous infusion 3 h or intragastric bolus
Text: as §1

[5] = cited from earlier work
[6] = system: ketone bodies (R-3-hydroxybutyrate+S-3-hydroxybutyrate+acetoacetate); experiment: Total ketone body concentrations in pigs; assay type: in vivo, pig
Experimental: as §1
The total concentration of physiological and unphysiological ketone bodies (R-3-hydroxybutyrate+S-3-hydroxybutyrate+acetoacetate) never exceeded 0.8 mM in the animal receiving RS-butanediol by the continuous intravenous route. […] Therefore, there was no marked acidosis in any of the groups.

[7] = RS-butanediol concentration in blood of pigs; assay type: in vivo, pig
Text: as §1

[8] = system: ethanol withdrawal syndrome; conditions: rats; cited from earlier work
[9] = Noted metabolism of esters compared with butanediol alone; assay type: in vivo; conditions: compared with physiological oxido-reduction ratio
alloxan-diabetic rats = conditions: cited from earlier work
mammalian cells = conditions: cited from earlier work
[NADH]/[NAD^+ ] = inhibition of gluconeogenesis and alcoholic hypoglycemia; cited from earlier work

CCC(O)CCO (racemic) [RS-1,3-pentanediol]
gluconeogenic and ketogenic substrate [1]: is a gluconeogenic and a ketogenic substrate

CC(O)CCO (racemic) [RS-butanediol, 1,3-butanediol]
osmotic effect ([2]; butanediol liberated in blood from plasma esterases): does not exert any osmotic effect
rate of distribution into total body water ([2]; compared with a tracer of water): at the same rate as a tracer of water
volume of distribution ([2]; i.e. total body water): 2/3
[R-3-hydroxybutyrate]/[acetoacetate] ratio [3]: increased
Glucose levels / hypoglycemic effect [4]: do not exert a hypoglycemic effect
adverse effect ([5]; diet containing 5%, humans): no adverse effect
nitrogen sparing ([5]; diet containing 5%, humans): nitrogen was spared
metabolism in the liver ([5]; via alcohol and aldehyde dehydrogenase): metabolised in the liver to DL-3-hydroxybutyrate
total concentration of ketone bodies ([6]; continuous intravenous infusion): ≤ 0.8 mM
total ketone body concentration ([6]; intragastric bolus): about 1.5 mM
linear decrease of butanediol concentration in blood, time ([7]; after intragastric bolus): 4 h
concentration at 3 h ([7]; pig, blood, constant intravenous infusion for 3 h, 25% of hourly caloric requirement, read-out: RS-butanediol (free butanediol) concentration): 600 µM
Cmax ([7]; pig, blood, intragastric bolus, 15% of daily caloric requirements, read-out: concentration of butanediol in the blood, peak): 25000 µM
effect on ethanol withdrawal syndrome [8]: alleviates the ethanol withdrawal syndrome in rats
3-hydroxybutyrate and acetoacetate ratio after metabolism in the liver [9]: more reduced than physiological

C[C@H](O)CCO [L-1,3-butanediol]
blood glucose level (alloxan-diabetic rats; alloxan-diabetic rats): useful in reducing the blood glucose level

C[C@H](O)CC(=O)O [L-β-hydroxybutyrate]
use by mammalian cells (mammalian cells): very well used by mammalian cells
antidiabetic properties (alloxan-diabetic rats; test not stated): has demonstrated interesting antidiabetic properties

CCO [ethanol]
redox shift ([NADH]/[NAD^+ ]): an increase in [NADH]/[NAD^+ ]
